pKd: −log10 of the molar value.
The compounds below were run against MBP-fused YpsR (1-179); YpsR-MBP; heading also 'YpeR' (Yersinia pseudotuberculosis, UniProt Q669I5). Conditions: read-out: Dissociation constant.
Sequence of MBP-fused YpsR (1-179); YpsR-MBP; heading also 'YpeR' (Q669I5 1-179 limits assumed): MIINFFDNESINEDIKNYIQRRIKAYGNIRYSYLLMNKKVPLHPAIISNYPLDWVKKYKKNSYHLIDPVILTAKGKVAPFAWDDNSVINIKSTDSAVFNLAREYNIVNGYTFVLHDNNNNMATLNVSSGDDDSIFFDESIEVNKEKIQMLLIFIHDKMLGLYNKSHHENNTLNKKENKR

| SMILES | pKd |
| --- | --- |
| CCCC(=O)CC(=O)N[C@H]1CCOC1=O [3OC6] | 5.89 |
| CCCCCC(=O)CC(=O)N[C@H]1CCOC1=O [3OC8] | 4.62 |
| CCCCCCCC(=O)CC(=O)N[C@H]1CCOC1=O [3OC10] | 3.84 |
| CCCCCCCCCC(=O)CC(=O)N[C@H]1CCOC1=O [3OC12] | 3.89 |
| CCCCCCCCCCCC(=O)CC(=O)N[C@H]1CCOC1=O [3OC14] | 4.74 |
| CCCCCC(=O)N[C@H]1CCOC1=O [C6] | 5.18 |
| CCCCCCCC(=O)N[C@H]1CCOC1=O [C8] | 4.81 |
| CCCCCCCCCC(=O)N[C@H]1CCOC1=O [C10] | 4.67 |

Reference: paper PMC11564790 (Synthetic and Systems Biotechnology, 2024)
